Reference: patent publication US20200239530A1, “COMPOUNDS AND METHODS OF MODULATING PROTEIN DEGRADATION” (Vividion Therapeutics, Inc., priority 2017, published 2020)

Assays:
Assay in all cases: Cysteine liganding, probe competition
Type in all cases: binding
SNX8 Sorting nexin-8 = target: T1, SNX8 Sorting nexin-8 (Homo sapiens, UniProt Q9Y5X2)
T1 construct: Cells were resuspended in cold PBS on ice and sonicated with a probe sonicator to achieve lysis; endogenous in cells
T1 sequence (Q9Y5X2 1-465): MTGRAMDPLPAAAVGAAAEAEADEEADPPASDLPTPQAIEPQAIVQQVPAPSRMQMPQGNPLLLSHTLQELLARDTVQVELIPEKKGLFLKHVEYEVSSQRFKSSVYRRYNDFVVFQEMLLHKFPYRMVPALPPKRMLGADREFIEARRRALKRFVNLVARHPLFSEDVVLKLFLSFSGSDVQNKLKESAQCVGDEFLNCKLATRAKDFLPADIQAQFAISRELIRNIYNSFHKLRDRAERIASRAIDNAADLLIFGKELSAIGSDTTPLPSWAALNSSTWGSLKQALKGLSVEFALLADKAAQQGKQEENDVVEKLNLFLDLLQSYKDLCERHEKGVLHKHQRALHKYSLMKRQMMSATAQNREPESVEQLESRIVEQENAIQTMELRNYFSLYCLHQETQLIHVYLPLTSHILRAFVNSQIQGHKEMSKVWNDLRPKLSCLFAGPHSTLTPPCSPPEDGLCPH
Outline: (§1)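 Probe competition in native proteome: 5 mg/ml lysate, compound 1 hr 25° C, then desthiobiotin iodoacetamide (10 mM stock) 1 hr 25° C; acetone ppt, urea/DTT reduction, iodoacetamide alkylation, trypsin, streptavidin pull-down.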

[1] = target: T2, CDK18 Cyclin-dependent kinase 18 (Homo sapiens, UniProt Q07002); details: for Liganded: CDK18 Res# 183, uniprot Q07002
T2 construct: 200 μL of lysate containing 5 mg/ml proteome was treated with 2 μL of 100× compound stock; endogenous in cells
T2 sequence (Q07002 whole entry): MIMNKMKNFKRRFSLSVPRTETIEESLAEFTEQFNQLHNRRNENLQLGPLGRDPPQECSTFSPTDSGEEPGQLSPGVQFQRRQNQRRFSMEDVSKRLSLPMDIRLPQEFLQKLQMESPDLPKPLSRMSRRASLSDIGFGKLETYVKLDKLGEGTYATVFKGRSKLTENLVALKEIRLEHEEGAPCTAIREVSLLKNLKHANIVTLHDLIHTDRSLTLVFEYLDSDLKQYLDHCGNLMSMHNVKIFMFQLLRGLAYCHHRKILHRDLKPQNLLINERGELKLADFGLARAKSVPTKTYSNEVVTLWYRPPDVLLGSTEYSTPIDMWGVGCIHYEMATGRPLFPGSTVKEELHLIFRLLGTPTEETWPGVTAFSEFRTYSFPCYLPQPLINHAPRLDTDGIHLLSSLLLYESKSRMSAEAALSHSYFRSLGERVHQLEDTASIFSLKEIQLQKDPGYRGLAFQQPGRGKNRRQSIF
Outline: as §1

[2] = target: T3, BIRC2 Baculoviral IAP repeat-containing protein 2 (Homo sapiens, UniProt Q13490); details: for Liganded: BIRC2 Res# 45, uniprot Q13490
T3 construct: Cells were resuspended in cold PBS on ice and sonicated with a probe sonicator to achieve lysis; endogenous in cells
T3 sequence (Q13490 whole entry): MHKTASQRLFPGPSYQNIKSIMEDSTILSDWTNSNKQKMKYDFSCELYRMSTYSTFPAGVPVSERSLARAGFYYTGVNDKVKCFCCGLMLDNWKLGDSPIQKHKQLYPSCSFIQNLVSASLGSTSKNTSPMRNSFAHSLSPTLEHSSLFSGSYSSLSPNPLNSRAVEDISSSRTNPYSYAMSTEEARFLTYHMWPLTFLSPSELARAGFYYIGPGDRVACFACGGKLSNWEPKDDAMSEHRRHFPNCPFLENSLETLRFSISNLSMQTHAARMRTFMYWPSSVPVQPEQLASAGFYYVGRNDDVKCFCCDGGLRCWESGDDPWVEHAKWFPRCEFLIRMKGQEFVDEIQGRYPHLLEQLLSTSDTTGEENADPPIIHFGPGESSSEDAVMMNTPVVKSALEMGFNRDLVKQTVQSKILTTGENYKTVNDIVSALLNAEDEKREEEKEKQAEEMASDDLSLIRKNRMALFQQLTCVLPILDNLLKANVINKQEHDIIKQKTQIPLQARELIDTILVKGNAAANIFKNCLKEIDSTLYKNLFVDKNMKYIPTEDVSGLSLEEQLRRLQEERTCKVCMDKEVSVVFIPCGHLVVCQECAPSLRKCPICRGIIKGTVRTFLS
Outline: as §1

[3] = target: T4, NOP56 Nucleolar protein 56 (Homo sapiens, UniProt O00567)
T4 construct: Cells were resuspended in cold PBS on ice and sonicated with a probe sonicator to achieve lysis; endogenous in cells
T4 sequence (O00567 1-594): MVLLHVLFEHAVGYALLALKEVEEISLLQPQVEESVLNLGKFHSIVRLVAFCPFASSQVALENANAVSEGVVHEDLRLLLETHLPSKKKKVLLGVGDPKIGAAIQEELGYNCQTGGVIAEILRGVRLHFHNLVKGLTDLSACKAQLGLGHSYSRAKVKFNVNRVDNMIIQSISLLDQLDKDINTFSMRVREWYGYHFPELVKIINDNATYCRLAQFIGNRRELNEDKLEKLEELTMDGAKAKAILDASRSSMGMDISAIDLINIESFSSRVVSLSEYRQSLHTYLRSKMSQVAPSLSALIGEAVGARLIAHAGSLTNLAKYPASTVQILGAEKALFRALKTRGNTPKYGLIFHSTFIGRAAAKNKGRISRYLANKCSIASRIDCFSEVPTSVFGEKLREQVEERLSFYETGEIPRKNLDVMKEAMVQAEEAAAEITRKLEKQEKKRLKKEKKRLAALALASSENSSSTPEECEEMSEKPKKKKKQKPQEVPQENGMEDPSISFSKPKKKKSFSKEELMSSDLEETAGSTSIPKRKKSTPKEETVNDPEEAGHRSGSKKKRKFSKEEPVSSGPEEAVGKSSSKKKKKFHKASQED
Outline: as §1

[4] = target: T5, DDX60 Probable ATP-dependent RNA helicase DDX60 (Homo sapiens, UniProt Q8IY21)
T5 construct: 200 μL of lysate containing 5 mg/ml proteome was treated with 2 μL of 100× compound stock; endogenous in cells
T5 sequence (Q8IY21 whole entry): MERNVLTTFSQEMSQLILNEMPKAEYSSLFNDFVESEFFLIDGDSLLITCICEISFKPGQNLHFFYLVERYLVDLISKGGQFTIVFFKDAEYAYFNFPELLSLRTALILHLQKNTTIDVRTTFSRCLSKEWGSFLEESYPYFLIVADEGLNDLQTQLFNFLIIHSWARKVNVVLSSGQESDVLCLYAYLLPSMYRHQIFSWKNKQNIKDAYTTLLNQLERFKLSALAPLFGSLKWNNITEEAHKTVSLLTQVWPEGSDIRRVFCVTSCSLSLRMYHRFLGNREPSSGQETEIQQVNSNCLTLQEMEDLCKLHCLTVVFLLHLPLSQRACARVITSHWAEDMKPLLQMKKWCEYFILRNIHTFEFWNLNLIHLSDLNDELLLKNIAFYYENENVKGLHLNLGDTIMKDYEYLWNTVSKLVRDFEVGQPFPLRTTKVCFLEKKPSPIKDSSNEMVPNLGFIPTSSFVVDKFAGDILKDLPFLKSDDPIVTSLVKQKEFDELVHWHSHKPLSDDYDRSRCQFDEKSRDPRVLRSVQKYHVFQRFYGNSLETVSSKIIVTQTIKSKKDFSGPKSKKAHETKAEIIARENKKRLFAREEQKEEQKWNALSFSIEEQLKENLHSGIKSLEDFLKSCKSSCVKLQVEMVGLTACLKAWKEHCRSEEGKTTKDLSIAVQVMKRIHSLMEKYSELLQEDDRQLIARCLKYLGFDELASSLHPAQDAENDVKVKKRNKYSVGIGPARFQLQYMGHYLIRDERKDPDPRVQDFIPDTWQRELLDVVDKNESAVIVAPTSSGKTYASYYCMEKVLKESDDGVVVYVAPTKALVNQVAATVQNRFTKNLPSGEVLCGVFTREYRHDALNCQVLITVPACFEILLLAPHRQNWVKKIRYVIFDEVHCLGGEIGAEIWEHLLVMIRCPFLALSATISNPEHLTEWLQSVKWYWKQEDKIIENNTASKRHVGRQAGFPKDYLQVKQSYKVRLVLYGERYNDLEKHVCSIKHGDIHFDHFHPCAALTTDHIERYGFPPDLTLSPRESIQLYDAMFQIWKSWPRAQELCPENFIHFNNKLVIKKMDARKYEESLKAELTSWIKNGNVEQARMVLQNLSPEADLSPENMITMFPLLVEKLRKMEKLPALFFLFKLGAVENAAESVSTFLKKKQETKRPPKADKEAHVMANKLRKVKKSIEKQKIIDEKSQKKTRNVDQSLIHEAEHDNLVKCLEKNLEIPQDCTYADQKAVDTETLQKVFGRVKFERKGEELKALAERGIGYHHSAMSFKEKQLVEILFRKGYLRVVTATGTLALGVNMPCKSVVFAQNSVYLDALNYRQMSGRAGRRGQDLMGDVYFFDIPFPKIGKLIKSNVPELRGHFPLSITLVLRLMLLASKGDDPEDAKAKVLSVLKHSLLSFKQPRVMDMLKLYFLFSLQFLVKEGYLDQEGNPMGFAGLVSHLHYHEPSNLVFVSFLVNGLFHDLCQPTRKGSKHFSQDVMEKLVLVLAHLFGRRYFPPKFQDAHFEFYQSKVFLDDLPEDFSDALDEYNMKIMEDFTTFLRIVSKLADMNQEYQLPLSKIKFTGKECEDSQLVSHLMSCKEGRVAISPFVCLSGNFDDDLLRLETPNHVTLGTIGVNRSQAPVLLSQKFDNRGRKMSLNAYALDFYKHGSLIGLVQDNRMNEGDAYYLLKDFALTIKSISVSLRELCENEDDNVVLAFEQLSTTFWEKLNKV
Outline: as §1

[5] = uniprot O00567, in % (unit assumed)

With `COc1ccc2c(c1)CCCN2C(=O)CCl` [KB02] the Liganded (SNX8 Sorting nexin-8; SNX8 Res# 200, uniprot Q9Y5X2) was “YES”, the Liganded [1] was “YES” and the Liganded [2] was “YES”. The Liganded ([3]; NOP56 Res# 211, uniprot O00567) was “YES” and the Liganded ([4]; DDX60 Res# 1051, uniprot Q8IY21) was “YES”.
With `O=C(CCl)Nc1cc(C(F)(F)F)cc(C(F)(F)F)c1` [KBO3] the “100 Max” value (SNX8 Sorting nexin-8; uniprot Q9Y5X2) was 36.21, the 100 ave (SNX8 Sorting nexin-8; uniprot Q9Y5X2) was 36.21 and the Liganded [1] was “YES”. The “100 Max” value ([1]; uniprot Q07002) was 50.67, the 100 ave ([1]; uniprot Q07002) was 28.2075 and the “500 Max” value ([1]; uniprot Q07002) was 80.44. The 500 ave ([1]; uniprot Q07002) was 79.225, the Liganded [2] was “YES” and the “100 Max” value ([2]; uniprot Q13490) was 47.9. The 100 ave ([2]; uniprot Q13490) was 41.4, the “500 Max” value ([2]; uniprot Q13490) was 92.0 and the 500 ave ([2]; uniprot Q13490) was 85.9. For the same molecule, the 100 ave ([3]; uniprot O00567) was 27.36, the 500 ave ([3]; uniprot O00567) was 68.12 and the “100 Max” value [3, 5] was 51.21. For the same molecule, the “500 Max” value [3, 5] was 68.12, the “100 Max” value ([4]; uniprot Q8IY21) was 29.56 and the 100 ave ([4]; uniprot Q8IY21) was 19.7. The “500 Max” value ([4]; uniprot Q8IY21) was 73.07 and the 500 ave ([4]; uniprot Q8IY21) was 73.07.
